# Reference: PMC12748266, “Testing antimicrobial peptides inhibiting protein synthesis in living E. coli and K. pneumoniae using bio-orthogonal non-canonical amino-acid tagging” (Frontiers in Microbiology, 2025)
# No end group written: not given here.
# Experiments:
# [1] = test system: K. pneumoniae ATCC 700603; experiment: Cell membrane permeabilization, propidium iodide flow cytometry; format: cell-based, Klebsiella pneumoniae; details: compound at its MIC, 40 min, 5 × 10^6 CFU/mL, supplemented M9; mean of n = 3
# Procedure: (§1) An overnight culture of E. coli ATCC 25922, or of K. pneumoniae ATCC 700603, prepared as described above, was diluted to a final concentration of 5 × 10^6 CFU/mL and allowed to adjust for 30 min at 37 °C under shaking. Membrane permeabilization of bacteria was then assessed by incubating bacteria at 37 °C, in a final volume of 1 mL, with varying concentrations of each peptide or antibiotic used for the BONCAT assay. 5 min before the ending of the selected incubation time (40 min), propidium iodide probe was added to the samples to a final concentration of 10 μg/mL before analysis using a flow cytometer. A positive control consisted of E. coli cells dehydrated with ethanol (as described above), while untreated cells were used as negative control. The fluorescence of untreated cells was used to establish the gating for positive PI-stained cells. Fixed bacterial cells, subjected to the click chemistry reaction to link the Alexa Fluor azide 488 probe, were analysed by flow cytometry and, among the gates-selected ones, only those that tested positive for Propidium Iodide, and thus permeabilized, were considered for the calculation of the mean fluorescence intensity (MFI) of the Alexa Fluor azide 488.
# (§2) Samples were analyzed by an Attune NxT® (ThermoFisher) equipped with a blue laser (488 nm) and photomultiplier tubes (PMTs) BL1 (525/50) and BL3 (695/40) to collect fluorescence. All parameters were set in logarithmic scale and the signals were recorded as Area. Forward scattering (FSC) was set to 300 mV, side scattering (SSC) to 350 mV and thresholds to 0.2 for FSC and 0.5 for SSC. The compensation matrix was performed according to the tool software. Hierarchical gates and acquisition flow rate (200 μL/min) were set to avoid coincident events. The files were saved as FCS 3.1 and analysed by FCS Express De Novo software v7. Flow cytometry data are presented as means ± SD from three independent experiments (n = 3).
# [2] = test system: K. pneumoniae ATCC 700603; experiment: BONCAT: HPG incorporation into newly synthesized proteins, flow cytometry; format: cell-based, Klebsiella pneumoniae; details: compound at MIC; for Fluorescence Intensity (% of Control): 10 min pre-incubation then 30 min HPG, untreated = 100%, mean, n ≥ 3
# Procedure: We used a modified protocol from [Lindivat et al. (2020)]. Briefly, overnight cultures of E. coli ATCC 25922 or K. pneumoniae ATCC 700603, prepared as described above, were diluted to a final concentration of 5×10^6 CFU/mL and allowed to adjust for 30 min at 37 °C. The culture was then incubated at 37 °C in the dark for 10 or 30 min in the presence or absence of each peptide or antibiotic at various concentrations, with a final volume of 1 mL. At this point, only in certain specified experimental assays, the compounds were removed from the supernatant by centrifugation (16,000 × g for 5 min) and bacteria were washed and resuspended in fresh supplemented M9 medium. Then, 32 μL of a 500 μM homopropargylglycine (HPG) solution were added to each sample, resulting in a final concentration of 16 μM in a finale volume of 1 mL. Also included in each assay were two untreated controls containing only bacteria and bacteria treated with 16 μM HPG alone, respectively. All samples were then incubated at 37 °C in the dark for 30 min. After incubation, samples were washed once with 1X filtered Phosphate Buffered Saline (PBS) (centrifuged at 16,000 x g for 5 min) and resuspended in PBS. After washing, samples were fixed with formaldehyde (Sigma Aldrich, USA) to a final concentration of 3% in 1 mL for 1 h at 25 °C. Subsequently, the samples were centrifuged at 16,000 x g for 5 min and resuspended in 1 mL of PBS. If not analysed immediately, the fixed samples were stored at 4 °C prior to performing the click chemistry reaction. Samples were centrifugated at 16,000 x g for 5 min and bacteria cells were dehydrated by ethanol that was added sequentially to achieve a final concentration of 50% (v/v) (3 min of incubation), 80% (v/v) (3 min of incubation), and 95% (v/v) (3 min of incubation). After dehydration, the samples were centrifugated (16,000 × g, 5 min) and resuspended in PBS. For cell analysis by SDS-PAGE, the following variations were implemented: bacterial cells were diluted in supplemented M9 medium to a final density of ~ 1 × 10^9 CFU/mL, and HPG was added to the samples at a final concentration of 160 μM. Bacteria were incubated with HPG for 0, 15, 30, 60, or 120 min at 37 °C in the dark.
# The click reaction was carried out according to [Rostovtsev et al. (2002)]. 15 μL of a pre-mix solution (prepared as described above) were added to each sample containing fixed bacteria that had incorporated HPG (30 μL of pre-mix solution in case of samples prepared for SDS-PAGE analysis), resulting in the following final concentrations in each sample: 0.1 mM copper sulfate, 0.5 mM Tris (3-hydroxypropyltriazolylmethyl)amine (THPTA), and 2.5 μM Alexa Fluor azide 488. Additionally, 50 μL of freshly prepared 100 mM sodium ascorbate and 50 μL of 100 mM aminoguanidine were added (100 μL in case of samples prepared for SDS-PAGE analysis), bringing the final volume to 1 mL. The samples were gently inverted once to mix and incubated for 30 min in the dark at 25 °C. […]
# An overnight culture of E. coli ATCC 25922, or of K. pneumoniae ATCC 700603, prepared as described above, was diluted to a final concentration of 5 × 10^6 CFU/mL and allowed to adjust for 30 min at 37 °C under shaking. Membrane permeabilization of bacteria was then assessed by incubating bacteria at 37 °C, in a final volume of 1 mL, with varying concentrations of each peptide or antibiotic used for the BONCAT assay. […] The fluorescence of untreated cells was used to establish the gating for positive PI-stained cells. […]
# E. coli ATCC 25922 = experiment: Cell membrane permeabilization, propidium iodide flow cytometry; format: cell-based, Escherichia coli; details: compound at its MIC, 40 min, 5 × 10^6 CFU/mL, supplemented M9, mean of n = 3
# Procedure: as §1, with “Membrane” for “An overnight culture of E. coli ATCC 25922, or of K. pneumoniae ATCC 700603, prepared as described above, was diluted to a final concentration of 5 × 10^6 CFU/mL and allowed to adjust for 30 min at 37 °C under shaking. Membrane”
# as §2
Molecule,Membrane permeabilization (% PI +cells) [1],Fluorescence Intensity (% of Control) [2],Membrane permeabilization (% PI +cells) (E. coli ATCC 25922),Reduction in fluorescence ([2]; 10 min + 30 min HPG),Membrane permeabilization (% PI +cells) (E. coli ATCC 25922; listed as Rifampin),Membrane permeabilization (% PI +cells) (E. coli ATCC 25922; listed as Chloramphenicol)
RRIRPRPPRLPRPRPR [Bac7(1–16)],<1%,18 % of Control,<1%,–,–,–
"CO[C@H]1/C=C/O[C@@]2(C)Oc3c(C)c(O)c4c(O)c(c(/C=N/N5CCN(C)CC5)c(O)c4c3C2=O)NC(=O)/C(C)=C\C=C\[C@H](C)[C@H](O)[C@@H](C)[C@@H](O)[C@@H](C)[C@H](OC(C)=O)[C@@H]1C [RIF, Rifampicin]",<1%,87 % of Control,<1%,did not affect fluorescence,0%,–
RRIRPRPPRLPRPRPRPLPFPRPGPRPIPRPLPFP [Bac7(1–35)],<1%,6 % of Control,<1%,–,–,–
"O=C(N[C@H](CO)[C@H](O)c1ccc([N+](=O)[O-])cc1)C(Cl)Cl [CHL, Chloramphenicol]",–,–,<1%,–,–,0%
